Consider one compound from patent publication EP1263458B1, “LOWERING SERUM CHOLESTEROL” (NOVO NORDISK A/S, priority 2000, dated 2005).

This data set deals with Wistar rats subjected to neonatal monosodium glutamate treatment (MSG). As to the kind of experiment: Acute and subchronic anorectic effects, plasma triglycerides, model of hypothalamic obesity (MSG rats). The data set is classed as in vivo. To be noted: 100 µg/kg s.c. twice daily, rat group not specified. The protocol: Solutions were always made fresh approximately 1 hour prior to use and stored at 4°C in sterile tubes.

The mark [1] stands for this setting: normalised within few days of treatment.

Take `CCCCCCCCCCCCCCCC(=O)N[C@@H](CCC(=O)NCCCC[C@H](NC(=O)[C@H](C)NC(=O)[C@H](C)NC(=O)[C@H](CCC(N)=O)NC(=O)CNC(=O)[C@H](CCC(=O)O)NC(=O)[C@H](CC(C)C)NC(=O)[C@H](Cc1ccc(O)cc1)NC(=O)[C@H](CO)NC(=O)[C@H](CO)NC(=O)[C@@H](NC(=O)[C@H](CC(=O)O)NC(=O)[C@H](CO)NC(=O)[C@@H](NC(=O)[C@H](Cc1ccccc1)NC(=O)[C@@H](NC(=O)CNC(=O)[C@H](CCC(=O)O)NC(=O)[C@H](C)NC(=O)[C@@H](N)Cc1cnc[nH]1)[C@@H](C)O)[C@@H](C)O)C(C)C)C(=O)N[C@@H](CCC(=O)O)C(=O)N[C@@H](Cc1ccccc1)C(=O)N[C@H](C(=O)N[C@@H](C)C(=O)N[C@@H](Cc1c[nH]c2ccccc12)C(=O)N[C@@H](CC(C)C)C(=O)N[C@H](C(=O)N[C@@H](CCCNC(=N)N)C(=O)NCC(=O)N[C@@H](CCCNC(=N)N)C(=O)NCC(=O)O)C(C)C)[C@@H](C)CC)C(=O)O` [GLP1, Arg^34, Lys^26(N^ε-(γ-Glu(N^α-hexadecanoyl)))-GLP-1(7-37)]: under setting [1], the diuresis entry was “increases” and the water intake result is on record as “Initial decreases”. Also, the “plasma parameters of renal function” value (throughout the experiment) is listed as “remained normal”.
